This is an account of results in paper PMC3493696 (Life sciences, 2012).

Molecules are shown by their SMILES. Like-named read-outs stand apart in the source and are kept apart here.

In one data set the test system is mice. The data set is described as follows: Responses of mice to AM-1241 administration. It is filed as in vivo, mouse.
The nature of data set [1]: Stability in mouse plasma at 37°C. It is filed as in vitro ADME. To be noted: at least 6 hours, 20 µM.
The next data set deals with CB2 vs. CB1. To be noted: ref Beltramo 2009; Bingham et al. 2007; Mancini et al. 2009; Nackley et al. 2003; Quartilho et al. 2003; Yao et al. 2006; cited from earlier work.
The conditions of data set [2]: ref Beltramo 2009, cited from earlier work.
A further data set deals with plasma proteins. The data set is described as follows: Plasma-protein binding in undiluted mouse plasma. It is filed as in vitro ADME. To be noted: up to 50 µM, 30 minute incubation at 37°C, triplicate.
A short description of data set [3]: Microsomal metabolism and LC-MS/MS metabolite analysis, rat liver microsomes. It is filed as in vitro ADME. To be noted: 100 µM, 30 minutes, 37°C, NADPH. In general terms: Liver microsomes are vesicles of endoplasmic reticulum, rich in cytochrome P450 enzymes.
Data set [4] is described as follows: Microsomal metabolism and LC-MS/MS metabolite analysis, human liver microsomes. To be noted: 100 µM, 30 minutes, 37°C, NADPH. It is filed as in vitro ADME.
Data set [5] is described as follows: Solution stability in acetonitrile at 37°C. It is filed as physicochemical. To be noted: at least 24 hours, 20 µM.
For data set [6] the following is noted: i.p., murine model; ref Storr et al. 2009; cited from earlier work.
Data set [7] can be described thus: Plasma pharmacokinetics in mice after i.v. or p.o. AM-1241*HCl. It is filed as in vivo, mouse.
Data set [8] is described as follows: Tissue distribution of AM-1241 in mice after i.v. or p.o. administration. It is filed as in vivo, mouse. To be noted: 25 mg/kg; for time by which concentration became undetectable: i.v.
For data set [9] the following is noted: local (intraplantar) administration; ref Malan et al. 2001; cited from earlier work.
Data set [10] in a line: Thermal stability of aqueous AM-1241*HCl solutions. It is filed as physicochemical. To be noted: 0.003, 0.03, 0.3 and 1 mg/mL, up to 14 days.
The next data set has as its target human serum albumin (Homo sapiens, UniProt P02768). Description: Binding to aqueous human serum albumin. It is filed as in vitro ADME. To be noted: 50 µM.
In data set [11] the target is T1, CB2 (Homo sapiens, UniProt P34972). To be noted: ref Beltramo 2009; Bingham et al. 2007; Mancini et al. 2009; Nackley et al. 2003; Quartilho et al. 2003; Yao et al. 2006; cited from earlier work.
For data set [12] the following is noted: rodents, doses of 0.1–100 mg/kg; ref Valenzano et al. 2005; cited from earlier work.
The conditions of data set [13]: 1.0 mg/kg i.v.; ref Dhawan et al. 2006; Petitet et al. 1999; cited from earlier work.
For data set [14] the following is noted: ref Giblin et al. 2007; cited from earlier work.
The target in data set [15] is T1, CB2. Description: Preliminary experiments: CB2 agonist potency of metabolite. To be noted: data not shown.

T1 sequence (P34972 whole entry, species assumed): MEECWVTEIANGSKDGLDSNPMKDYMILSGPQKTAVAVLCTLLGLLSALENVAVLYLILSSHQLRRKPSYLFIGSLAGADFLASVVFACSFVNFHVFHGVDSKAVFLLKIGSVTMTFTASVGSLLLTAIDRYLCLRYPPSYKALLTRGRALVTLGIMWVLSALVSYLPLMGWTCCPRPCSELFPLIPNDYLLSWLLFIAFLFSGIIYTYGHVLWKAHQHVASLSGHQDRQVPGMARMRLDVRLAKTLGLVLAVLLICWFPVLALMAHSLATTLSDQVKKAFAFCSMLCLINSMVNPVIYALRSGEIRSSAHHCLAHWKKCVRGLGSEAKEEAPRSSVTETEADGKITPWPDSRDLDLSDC
human serum albumin, sequence (P02768 25-609): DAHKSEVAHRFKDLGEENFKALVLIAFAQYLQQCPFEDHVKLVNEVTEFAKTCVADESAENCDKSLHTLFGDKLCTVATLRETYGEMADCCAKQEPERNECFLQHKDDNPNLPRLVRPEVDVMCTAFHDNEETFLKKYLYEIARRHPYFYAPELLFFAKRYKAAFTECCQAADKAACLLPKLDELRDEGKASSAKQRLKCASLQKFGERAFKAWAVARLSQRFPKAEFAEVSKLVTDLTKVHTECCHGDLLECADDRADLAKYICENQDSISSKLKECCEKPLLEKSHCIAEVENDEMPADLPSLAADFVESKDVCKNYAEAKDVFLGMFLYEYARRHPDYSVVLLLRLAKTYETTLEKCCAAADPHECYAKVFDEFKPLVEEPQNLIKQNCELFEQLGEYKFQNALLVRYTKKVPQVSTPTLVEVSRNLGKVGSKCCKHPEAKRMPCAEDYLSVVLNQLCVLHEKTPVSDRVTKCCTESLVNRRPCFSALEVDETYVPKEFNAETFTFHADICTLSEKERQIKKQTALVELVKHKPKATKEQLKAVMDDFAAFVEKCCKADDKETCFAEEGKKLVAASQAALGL

With `CN1CCCCC1Cn1cc(C(=O)c2cc([N+](=O)[O-])ccc2I)c2ccccc21.Cl` (stereo not shown) [AM-1241*HCl], the behavior after administration result with mice (25 mg/kg i.v.) is “initially somewhat hypoactive, but behaved normally by 90 minutes post-dose”. Further, in the data set on mice (25 mg/kg p.o.), the behavior after administration result is “remained alert and apparently unaffected”; the “transient gaping response (animals affected)” value is reported as “two of the twenty-nine animals”.
As to `CN1CCCCC1Cn1cc(C(=O)c2cc([N+](=O)[O-])ccc2I)c2ccccc21` (racemic) [AM-1241, (R,S)-(2-iodo-5-nitrophenyl)-[1-((1-methyl-piperidin-2-yl)methyl-1H-indol-3-yl]-methanone], the “recovery after incubation (stability)” value in [1] and in data set [5] was > 95% in each case. Also, in the data set on CB2 vs. CB1, the “selectivity for CB2 vs. CB1” value was “up to 340 fold”. In [2] (i.v., Beltramo et al. 2006, Ohta et al. 2008), the “doses reported efficacious in various preclinical pain models” value is “up to 6 mg/kg”. Besides, in the data set on plasma proteins, the “bound to plasma protein” value is 99%. In addition, the “site of phase I microsomal metabolism (demethylation and hydroxylation products)” value in [3] is recorded as “primarily on the piperadine moiety”. For the same molecule, the “metabolites formed compared with rat liver microsomes” value in [4] is on record as “the same metabolites”. Further, the “daily dose required to reduce experimental colitis” value in data set [6] was 20 to 40 mg/kg. Also, in data set [7] (25 mg/kg), the “half-life after p.o. relative to i.v. administration” value is reported as “over 2 fold”. For the same molecule, the plasma half-life in [7] (25 mg/kg i.v.) was found to be 0.617 h. Besides, in data set [7] (25 mg/kg p.o.), the “half-life after p.o. administration” value worked out at 1.37 h. Further, in data set [7] (25 mg/kg, plasma AUC ratio p.o./i.v.), the oral bioavailability is reported as ~ 21%. In addition, the “time by which concentration became undetectable” value is ≤ 120 min in data set [8] (brain); ≤ 240 min in [8] (intestine); ≤ 240 min in data set [8] (kidney); ≤ 90 min in [8] (liver); ≤ 240 min in data set [8] (plasma); ≤ 240 min in [8] (spleen). Moreover, the “detection in brain or liver” value in data set [8] (p.o.) is “not in brain or liver”. The toxicity result in the data set on mice (25 mg/kg orally or i.v., necropsies unremarkable) was “not toxic”. In the data set on mice (25 mg/kg p.o.), the “transient gaping response (animals affected)” value is given as “Two out of 29 mice”. For the same molecule, the “gross organ or tissue abnormalities at end-point necropsy” value in the data set with mice (any AM-1241 treatment (25 mg/kg i.v. or p.o.)) is reported as “No gross organ or tissue abnormalities”. Besides, the “dose at which maximal analgesic efficacy was reached” value in data set [9] is 3.3 mg/kg. Further, the “stability of aqueous samples” value in data set [10] (4°C) and in data set [10] (room temperature) was “stable” each time. For the same molecule, the values for the bound to albumin at human serum albumin (0.4% (w/v) aqueous human serum albumin) and on human serum albumin (1.0% (w/v) aqueous human serum albumin) were 56% and 85%, respectively. Also, the CB2 affinity result at CB2 [11] is “low nanomolar”.
Regarding `COc1ccc2c(c1)c(CCN1CCOCC1)c(C)n2C(=O)c1cccc(Cl)c1Cl` [GW405833, reference compound], the “dose of maximal effective antihyperalgesic and analgesic activities” value in [2] (i.p.) was 1 to 3 mg/kg. Besides, the oral bioavailability in data set [12] is 0%.
`CN1CCCCC1Cn1cc(C(=O)c2ccccc2I)c2ccccc21` (stereo not shown) [AM-2233]: in data set [13], the catalepsy result is reported as “profound catalepsy”.
For `O=C(NCC1CCOCC1)c1cnc(Nc2ccc(Cl)cc2Cl)nc1C(F)(F)F` [GW842166X], the “half-life after p.o. administration” value in data set [14] is 3 to 5 h.
Take `O=C(c1cc([N+](=O)[O-])ccc1I)c1cn(CC2CCCCN2)c2ccccc12` (stereo not shown) [demethylated metabolite of AM-1241]: the “CB2 agonist potency compared to the parent compound” value on CB2 [15] is given as “somewhat less potent”.
On to `Cc1c(C(=O)c2cccc3ccccc23)c2cccc3c2n1[C@H](CN1CCOCC1)CO3` [WIN 55,212-2], for which, in data set [13], the catalepsy result is given as “profound catalepsy”.
